Measurements from patent US20080063720A1, “Delivery System” (priority 2004, published 2008).

Key:
[1] = system: THP-1 differentiated macrophages; experiment: Brefeldin A effect on intranuclear accumulation of quantum dots; type: cell-based, human; conditions: Brefeldin A 20 μg/ml for 30 min, washed out before particles were added
Method: In the studies referred to in FIGS. 1-10, Human THP-1 monocytes, the transformed epithelial cell lines HT-29, HCT-116 and T cell lymphoma cell line HUT-78 were obtained from the European Collection of Animal Cell Cultures (ECACC, Salisbury, UK). Cells were grown in RPMI 1640 medium supplemented with 10% heat-inactivated fetal bovine serum (FBS), 2 mM L-glutamine/L, 100 μg penicillin/ml and […], and incubated at 37° C. in 5% CO2. To induce monocyte to macrophage differentiation, THP-1 cells were cultured in the presence of 100 ng/ml PMA for 72 h.
Prior to incubation with CdTe particles THP-1 differentiated macrophages were incubated with the Golgi complex disrupter Brefeldin A for 30 min at 20 μg/ml. Following a wash out, green 2.2 nm size CdTe particles were added to the cells.

[2] = system: human primary macrophage cells; experiment: Thapsigargin effect on intranuclear accumulation of quantum dots; type: cell-based; conditions: thapsigargin 100 mM for 30 min, washed out before incubation with particles
Method: Nuclear import inhibitor thapsigargin ([…]) was added to the cells for 30 min and subsequently washed out with pre-warmed culture medium prior to incubation with 2.2 nm size (green emitting) CdTe particles.

SMILES | effect on distribution and intranuclear accumulation of 2.2 nm green CdTe particles [1] | effect on intranuclear accumulation of 2.2 nm green CdTe particles [2]
C[C@H]1CCC/C=C/[C@@H]2C[C@H](O)C[C@H]2[C@H](O)/C=C/C(=O)O1 [brefeldin A, Brefeldin A] | dispersion of quantum dots and partial block of intranuclear accumulation | 
C/C=C(/C)C(=O)O[C@H]1C(C)=C2[C@H]([C@@H]1OC(=O)CCCCCCC)[C@@](C)(OC(C)=O)C[C@H](OC(=O)CCC)[C@@]1(O)[C@H]2OC(=O)[C@@]1(C)O [thapsigargin] |  | blockade of intranuclear accumulation
